Measured values from PMC6663879, “Biochemical and structural investigations clarify the substrate selectivity of the 2-oxoglutarate oxygenase JMJD6” (The Journal of Biological Chemistry, 2019).
Ends that are not written are not given here.

Columns and labels:
[1] = molecular target: T1, JMJD6^Δ363–403 (Homo sapiens, UniProt Q6NYC1); experiment: Standard MS-based hydroxylation assay (MALDI-TOF MS) of substrate peptides; type: biochemical; design: two more variants (aa 1–362, JMJD6^Δ363–403, and aa 1–343, JMJD6^Δ344–403); His6 (N); made in house; host or cells: Escherichia coli Rosetta2(DE3); conditions: for JMJD6-catalyzed hydroxylation (+16-Da mass shift), result in words: JMJD6^Δ363–403, standard assay conditions, MALDI-TOF MS / LC-MS/MS; for Hydroxylation: 10 μM JMJD6^Δ363–403, 100 μM peptide, 100 μM Fe(II), 400 μM ascorbate, 500 μM 2OG, 50 mM HEPES-KOH pH 8.0, 37 °C, 30 min, MALDI-TOF MS; for Hydroxylation / kcat / Km: mean ± S.D. (n = 3); for kcat/Km^app / kcat / Km: standard hydroxylation assay conditions, substrate peptide varied 0–400 μM; for Km: read-out: Km^app
[2] = test system: JMJD2E (KDM4E); experiment: MS-based demethylation assay, positive control for RDM activity; type: biochemical; conditions: same conditions, MALDI-TOF MS / LC-MS/MS
Protocol: Reaction samples were thereafter analyzed by MALDI-TOF or LC-MS/MS.
Peptides were “trapped” on an in-house packed guard column (75-μm inner diameter × 20 mm, Acclaim PepMap® C18, 3 μm, 100 Å) using solvent A (0.1% (v/v) aqueous formic acid) at a pressure of 140 bar. Peptides were separated on an EASY-Spray Acclaim PepMap® analytical column (75 μm inner diameter × 15 mm, rapid separation liquid chromatography C18, 3 μm, 100 Å) using a linear gradient (length, 100 min; 3–60% solvent B (0.1% formic acid in acetonitrile), flow rate, 300 nl/min). The separated peptides were electro-sprayed directly into the spectrometer operating in a data-dependent mode using a collision-induced dissociation/electron transfer dissociation (CID/ETD)-based method. Full scan MS spectra (scan range 150–2000 m/z, resolution 30,000, AGC target 1 × 10^6, maximum injection time 250 ms) and subsequent CID MS/MS spectra (AGC target 3 × 10^4, maximum injection time 500 ms) of the 10 most intense peaks were acquired in the Orbitrap. CID fragmentation was performed at 35% of the normalized collision energy, and the signal intensity threshold was kept at 500 counts. ETD spectra (AGC cation target 5 × 10^4, AGC anion target 2 × 10^5, and cation maximum injection time 100 ms) were acquired in the ion trap. PEAKS® 8.0 (Bioinformatics Solutions, Inc., Waterloo, Canada) was used to analyze raw data. […]

[3] = molecular target: T1, JMJD6^Δ363–403; experiment: Standard MS-based demethylation assay (MALDI-TOF, LC-MS/MS); type: biochemical; design: two more variants (aa 1–362, JMJD6^Δ363–403, and aa 1–343, JMJD6^Δ344–403); His6 (N); made in house; host or cells: Escherichia coli Rosetta2(DE3); conditions: JMJD6^Δ363–403, 37 °C, HEPES-KOH pH 8.0, MALDI-TOF MS / LC-MS/MS
Protocol: Peptides were “trapped” on an in-house packed guard column (75-μm inner diameter × 20 mm, Acclaim PepMap® C18, 3 μm, 100 Å) using solvent A (0.1% (v/v) aqueous formic acid) at a pressure of 140 bar. Peptides were separated on an EASY-Spray Acclaim PepMap® analytical column (75 μm inner diameter × 15 mm, rapid separation liquid chromatography C18, 3 μm, 100 Å) using a linear gradient (length, 100 min; 3–60% solvent B (0.1% formic acid in acetonitrile), flow rate, 300 nl/min). The separated peptides were electro-sprayed directly into the spectrometer operating in a data-dependent mode using a collision-induced dissociation/electron transfer dissociation (CID/ETD)-based method. Full scan MS spectra (scan range 150–2000 m/z, resolution 30,000, AGC target 1 × 10^6, maximum injection time 250 ms) and subsequent CID MS/MS spectra (AGC target 3 × 10^4, maximum injection time 500 ms) of the 10 most intense peaks were acquired in the Orbitrap. CID fragmentation was performed at 35% of the normalized collision energy, and the signal intensity threshold was kept at 500 counts. ETD spectra (AGC cation target 5 × 10^4, AGC anion target 2 × 10^5, and cation maximum injection time 100 ms) were acquired in the ion trap. PEAKS® 8.0 (Bioinformatics Solutions, Inc., Waterloo, Canada) was used to analyze raw data. The raw MS files were searched against the respective protein sequences. […]

[4] = test system: SAKcaC (stretch-activated BK channel); experiment: Single-channel current recording of SAKcaC with GsMTx4 back-filled in the pipette; type: cell-based, chick; conditions: for Po of SAKcaC (amplitude histogram): 50 nM GsMTx4 in pipette, 25 min after onset of back-filling, chick ventricular myocytes, typical patch
[5] = JMJD6^Δ363–403, MALDI-TOF MS, inhibitor concentration not given

`O=C(O)c1ccnc(C(=O)O)c1` [2,4-PDCA, 2,4-pyridine dicarboxylic acid, reference compound] was tested, and the “Hydroxylation of ERα 251–262 peptide by JMJD6 on addition of the inhibitor” value [1, 5] was “Hydroxylation was ablated” and the “Hydroxylation of WT pVHL166–177 by JMJD6 in the presence of the inhibitor” value [1, 5] was “did not manifest hydroxylation”.
For “H3_1–25: histone 3 peptide with unmodified arginine residues”, the “JMJD6-catalyzed hydroxylation (+16-Da mass shift), result in words” value [1] was “hydroxylation of lysine residues was also observed”.
In the case of “SGR(me2s)GKGGKGLGKGGAKRHK-biotin [H4R3(me2s)1–18, histone 4 peptide with symmetrically di-methylated Arg3 and K-biotin]”, the “JMJD2E-catalyzed demethylation (−14 and −28 Da mass shifts), result in words” value [2] is reported as “manifested demethylation”, the “JMJD6-catalyzed hydroxylation (+16-Da mass shift), result in words” value [1] is reported as “catalyzes hydroxylation” and the “JMJD6-catalyzed demethylation (−14 or −28 Da mass shift), result in words” value [3] is reported as “does not have RDM activity”.
Molecule “KRHSRSRSRS [Acinus S′95–604, fragment of Acinus S′]” has a Hydroxylation [1] of 12.5 ± 3.0%.
For “GsMTx4: inhibitor of stretch-activated BK channel (mismatched supplement) (GCLEFWWKCNPNDDKCCRPKLKCSKLFKLCNFSF; ends and bridges not checked; cysteine pairing not given here; UniProt Q7YT39 47-80, looked up)”, the “Po of SAKcaC (amplitude histogram)” value ([4]; 1 mM intracellular Ca2+) was 35.5, the “Po of SAKcaC (amplitude histogram)” value ([4]; –40 mV, 0.8 µM intracellular Ca2+) was 14.2 and the “Effect on stretch-activated BK channel and its single-channel conductance, result in words” value ([4]; 100 nM GsMTx4 in the pipette, 1 mM intracellular Ca2+, 30 min after onset of back-filling) was “inhibits stretch-activated BK channel without changing single-channel conductance”.
“RDRRRRSKPLTRGAK [U2AF65_55–70, fragment of U2AF65]” was tested, and the Hydroxylation [1] was 61.0 ± 6.4%, the “kcat/Km^app” value [1] was 34 M⁻¹ s⁻¹ and the kcat [1] was 43.0 ± 5.2 × 10^−4 s^−1. It also gave a Km [1] of 124 ± 34 µM.
“SKSRSRSHERKRS [RBM39_38–50, fragment of RBM39]” was tested, and the Hydroxylation [1] was 79.0 ± 8.9%, the “kcat/Km^app” value [1] was 395 M⁻¹ s⁻¹ and the kcat [1] was 281 ± 15 × 10^−4 s^−1. It also gave a Km [1] of 71 ± 9.9 µM.
With “RSPKRKLSRSPSPR [SRSF11_358–372, fragment of SRSF11]” the Hydroxylation [1] was 44.1 ± 3.9%, the “kcat/Km^app” value [1] was 229 M⁻¹ s⁻¹ and the kcat [1] was 174 ± 19 × 10^−4 s^−1. The Km [1] was 76 ± 21 µM.
Work on “ERGRRSRSTSKT [SRSF11_299–310, fragment of SRSF11]” yielded a Hydroxylation [1] of 6.40 ± 0.90%.
For “SRSRSRDRKRRSRSRDR [U2AF65_30–46, fragment of the RS region of U2AF65]”, the Hydroxylation [1] was 72.4 ± 6.5%, the “kcat/Km^app” value [1] was 118 M⁻¹ s⁻¹ and the kcat [1] was 92.0 ± 7.0 × 10^−4 s^−1. It also gave a Km [1] of 78 ± 15 µM.
Work on “PRSRSRSRDRRRKE [Acinus S′447–460, fragment of Acinus S′]” yielded a Hydroxylation [1] of 25.6 ± 2.8%.
For “SRRRSRSKSPFR [RBM39_121–132, fragment of RBM39]”, the Hydroxylation [1] was 82.5 ± 5.6%, the “kcat/Km^app” value [1] was 303 M⁻¹ s⁻¹ and the kcat [1] was 300 ± 23 × 10^−4 s^−1. It also gave a Km [1] of 99 ± 19 µM.
“SRERRKLSRSRSR [LUC7L1_287–298, fragment of LUC7L1]” was tested, and the Hydroxylation [1] was 18.3 ± 3.1%.
In the case of “RKHRSRSRDRRRSKS [CROP341–355, fragment of SR protein CROP/LUC7L3]”, the Hydroxylation [1] is reported as 92.7 ± 6.9%, the “kcat/Km^app” value [1] is reported as 217 M⁻¹ s⁻¹ and the kcat [1] is reported as 165 ± 12 × 10^−4 s^−1. For the same molecule, the Km [1] was 76 ± 13 µM.
